Here are results for 18 compounds from US20260125370A1, “SULFOXIMINE COMPOUNDS AS HISTONE DEACETYLASE 6 INHIBITOR, AND PHARMACEUTICAL COMPOSITION COMPRISING THE SAME” (CHONG KUN DANG PHARMACEUTICAL CORP., priority 2022, published 2026).

Where only a bound is given, the exact number is not on record here.

In one experiment the target is T1, human recombinant HDAC6 (Homo sapiens, UniProt Q9UBN7).
T1 construct: purchased Calbiochem 382180
T1 sequence (Q9UBN7 1-1215): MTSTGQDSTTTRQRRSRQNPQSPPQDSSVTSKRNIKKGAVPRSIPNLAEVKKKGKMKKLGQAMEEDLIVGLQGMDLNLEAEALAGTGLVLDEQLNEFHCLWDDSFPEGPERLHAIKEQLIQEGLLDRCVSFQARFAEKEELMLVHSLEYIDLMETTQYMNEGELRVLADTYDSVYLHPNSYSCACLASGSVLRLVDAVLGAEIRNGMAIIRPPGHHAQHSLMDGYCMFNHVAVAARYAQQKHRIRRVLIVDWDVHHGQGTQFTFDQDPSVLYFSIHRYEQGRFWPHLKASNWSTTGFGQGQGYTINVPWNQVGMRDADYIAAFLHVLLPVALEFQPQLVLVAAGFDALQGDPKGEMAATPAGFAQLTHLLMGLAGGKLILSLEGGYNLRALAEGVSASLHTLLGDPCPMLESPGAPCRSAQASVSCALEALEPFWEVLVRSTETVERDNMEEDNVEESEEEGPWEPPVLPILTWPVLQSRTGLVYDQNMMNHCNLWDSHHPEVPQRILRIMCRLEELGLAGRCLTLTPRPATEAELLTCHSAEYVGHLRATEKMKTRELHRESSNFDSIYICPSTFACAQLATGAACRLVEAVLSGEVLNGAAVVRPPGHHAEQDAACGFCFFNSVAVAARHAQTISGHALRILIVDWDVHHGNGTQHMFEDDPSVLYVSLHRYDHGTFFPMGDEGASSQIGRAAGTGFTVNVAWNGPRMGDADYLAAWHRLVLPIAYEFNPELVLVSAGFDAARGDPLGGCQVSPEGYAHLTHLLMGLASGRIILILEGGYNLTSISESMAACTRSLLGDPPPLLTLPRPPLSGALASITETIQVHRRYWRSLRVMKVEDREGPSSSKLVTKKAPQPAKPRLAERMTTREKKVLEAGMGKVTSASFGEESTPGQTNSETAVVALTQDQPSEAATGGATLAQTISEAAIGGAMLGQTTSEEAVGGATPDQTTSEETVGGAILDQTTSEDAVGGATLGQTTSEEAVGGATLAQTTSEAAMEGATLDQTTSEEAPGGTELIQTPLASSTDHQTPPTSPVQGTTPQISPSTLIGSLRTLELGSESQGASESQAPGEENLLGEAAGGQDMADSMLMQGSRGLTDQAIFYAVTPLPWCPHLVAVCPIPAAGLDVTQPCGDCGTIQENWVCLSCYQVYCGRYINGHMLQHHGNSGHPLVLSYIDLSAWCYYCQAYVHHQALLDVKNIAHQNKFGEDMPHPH
Description: HDAC6 enzyme activity inhibition (fluorimetric, in vitro). The class given is biochemical. The following applies: samples at 0.1, 1, 10, 100 and 1000 nM. As for the experimental part: (§1) A HDAC enzyme inhibitory capacity of a test material was measured by using HDAC1 Fluorimetric Drug Discovery Assay Kit (Enzolifesciences: BML-AK511) and HDAC6 human recombinant (Calbiochem: 382180). For a HDAC1 assay, samples were treated at a concentration of 100, 1000 and 10000 nM. For a HDAC6 assay, samples were treated at a concentration of 0.1, 1, 10, 100 and 1000 nM.
(§2) For the test on the HDAC1 enzyme activity, human recombinant HDAC1 (BML-SE456) was used as a zymogen and Fluor de Lys®-SIRT1 (BNL-KI177) was used as a substrate. A 5-fold dilution of the compound was divided into a 96-well plate, after which 0.3 μg of the enzyme and […] of the substrate were inserted into each well and subjected to reaction at 37° C. for 60 minutes, such that Fluor de Lys® Developer II (BML-K1176) was inserted thereinto and subjected to reaction for 30 minutes and finished. After that, a fluorescence value (Ex 360, Em 460) was measured with a multi-plate reader (FlexStation 3, Molecular Device). An experiment on HDAC6 enzyme was conducted in accordance with the same protocol as in the HDAC1 enzyme activity test method by using human recombinant HDAC6 (382180) of Calbiochem Inc. For final result values, each IC50 value was calculated with GraphPad Prism 4.0 program.

The target in another experiment is T2, human recombinant HDAC1 (Homo sapiens, UniProt Q13547).
T2 construct: purchased Enzolifesciences BML-SE456
Put plainly: HDAC1 enzyme activity inhibition (HDAC1 Fluorimetric Drug Discovery Assay Kit, in vitro). The class given is biochemical. The following applies: samples at 100, 1000 and 10000 nM. As for the experimental part: as §1, §2

T2 sequence (Q13547 whole entry): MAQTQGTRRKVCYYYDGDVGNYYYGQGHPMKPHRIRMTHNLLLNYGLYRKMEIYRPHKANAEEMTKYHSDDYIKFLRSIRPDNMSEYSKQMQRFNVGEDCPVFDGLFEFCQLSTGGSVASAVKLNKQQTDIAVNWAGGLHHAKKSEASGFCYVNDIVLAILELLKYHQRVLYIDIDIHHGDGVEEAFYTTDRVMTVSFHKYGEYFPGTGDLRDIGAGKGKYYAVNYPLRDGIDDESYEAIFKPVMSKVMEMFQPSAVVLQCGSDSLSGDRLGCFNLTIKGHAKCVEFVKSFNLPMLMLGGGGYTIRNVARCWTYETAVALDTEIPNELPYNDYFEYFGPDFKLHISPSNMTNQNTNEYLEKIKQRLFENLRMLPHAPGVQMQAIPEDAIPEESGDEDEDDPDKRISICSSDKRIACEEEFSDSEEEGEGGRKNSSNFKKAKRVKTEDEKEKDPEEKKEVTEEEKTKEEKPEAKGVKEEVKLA

For orientation: IC50 means the concentration needed to halve the response being measured. With `N=S1(=O)CCN(S(=O)(=O)N(Cc2ccc(-c3nnc(C(F)F)o3)cn2)c2ccccc2)CC1` [Compound 19, N-((5-(5-(difluoromethyl)-1,3,4-oxadiazol-2-yl)pyridin-2-yl)methyl)-1-imino-N-phenylthiomorpholin-4-sulfonamide 1-oxide], the concentration for half-maximal inhibition (IC50) on human recombinant HDAC6 is 19.7 nM; at human recombinant HDAC1 it was more than 10000 nM.
The matching figures for `N=S1(=O)CCN(C(=O)N(Cc2ccc(-c3nnc(C(F)F)o3)cc2F)c2ccc(Br)cc2)CC1` [Compound 20, N-(4-bromophenyl)-N-(4-(5-(difluoromethyl)-1,3,4-oxadiazol-2-yl)-2-fluorobenzyl)-1-iminothiomorpholin-4-carboxamide 1-oxide]: 76.7 nM and more than 10000 nM.
The matching figures for `N=S1(=O)CCN(C(=O)N(Cc2ccc(-c3nnc(C(F)F)o3)cc2F)c2ccc(SC(F)(F)F)cc2)CC1` [Compound 21, N-(4-(5-(difluoromethyl)-1,3,4-oxadiazol-2-y1)-2-fluorobenzyl)-1-imino-N-(4-((trifluoromethyl)thio)phenyl)thiomorpholin-4-carboxamide 1-oxide]: 294 nM and more than 10000 nM.
For `N=S1(=O)CCN(C(=O)N(Cc2ccc(-c3nnc(C(F)F)o3)cc2F)c2ccc3c(c2)CCO3)CC1` [Compound 22, N-(4-(5-(difluoromethyl)-1,3,4-oxadiazol-2-y1)-2-fluorobenzyl)-N-(2,3-dihydrobenzofuran-5-yl)-1-iminothiomorpholin-4-carboxamide 1-oxide], in that order: 75.2 nM and more than 10000 nM.
As to `N=S1(=O)CCN(C(=O)N(Cc2ccc(-c3nnc(C(F)F)o3)cc2F)c2ccc(-c3ccco3)cc2)CC1` [Compound 23, N-(4-(5-(difluoromethyl)-1,3,4-oxadiazol-2-yl)-2-fluorobenzyl)-N-(4-(furan-2-yl)phenyl)-1-iminothiomorpholin-4-carboxamide 1-oxide], the IC50 at human recombinant HDAC6 is 64.4 nM; at human recombinant HDAC1, more than 10000 nM.
The matching figures for `N=S1(=O)CCN(C(=O)N(Cc2ccccc2)Cc2ccc(-c3nnc(C(F)F)o3)cc2F)CC1` [Compound 24, N-benzyl-N-(4-(5-(difluoromethyl)-1,3,4-oxadiazol-2-y1)-2-fluorobenzyl)-1-iminothiomorpholin-4-carboxamide 1-oxide]: 1010 nM and more than 10000 nM.
The matching figures for `COc1ccccc1N(Cc1ccc(-c2nnc(C(F)F)o2)cc1F)C(=O)N1CCS(=N)(=O)CC1` [Compound 25, N-(4-(5-(difluoromethyl)-1,3,4-oxadiazol-2-y1)-2-fluorobenzyl)-1-imino-N-(2-methoxyphenyl)thiomorpholin-4-carboxamide 1-oxide]: 141 nM and more than 10000 nM.
The matching figures for `N=S1(=O)CCN(C(=O)N(Cc2ccc(-c3nnc(C(F)F)o3)cc2F)c2ccsc2)CC1` [Compound 26, N-(4-(5-(difluoromethyl)-1,3,4-oxadiazol-2-yl)-2-fluorobenzyl)-1-imino-N-(thiophen-3-yl)thiomorpholin-4-carboxamide 1-oxide]: 98.6 nM and more than 10000 nM.
As for `COc1ccc(N(Cc2ccc(-c3nnc(C(F)F)o3)cc2F)C(=O)N2CCS(=N)(=O)CC2)cc1` [Compound 27, N-(4-(5-(difluoromethyl)-1,3,4-oxadiazol-2-y1)-2-fluorobenzyl)-1-imino-N-(4-methoxyphenyl)thiomorpholin-4-carboxamide 1-oxide], the 50% inhibitory concentration (IC50) on human recombinant HDAC6 is 86.6 nM; on human recombinant HDAC1, more than 10000 nM.
For `N=S1(=O)CCN(C(=O)N(Cc2ccc(-c3nnc(C(F)F)o3)cc2F)c2ccc3c(c2)CCC3)CC1` [Compound 28, N-(4-(5-(difluoromethyl)-1,3,4-oxadiazol-2-y1)-2-fluorobenzyl)-N-(2,3-dihydro-1H-inden-5-yl)-1-iminothiomorpholin-4-carboxamide 1-oxide], in that order: 92.2 nM and more than 10000 nM.
The matching figures for `CCOP(=O)(N=S1(=O)CCN(C(=O)N(Cc2ccc(-c3nnc(C(F)F)o3)cc2F)c2ccc(F)c(F)c2)CC1)OCC` [Compound 29, Diethyl (4-((4-(5-(difluoromethyl)-1,3,4-oxadiazol-2-yl)-2-fluorobenzyl)(3,4-difluorophenyl)carbamoyl)-1-oxidothiomorpholin-1-ylidene)phosphoramidate]: 78.8 nM and more than 10000 nM.
Consider `CC(=O)N=S1(=O)CCN(C(=O)N(Cc2ccc(-c3nnc(C(F)F)o3)cn2)c2ccc(F)c(F)c2)CC1` [Compound 30, 1-(acetylimino)-N-((5-(5-(difluoromethyl)-1,3,4-oxadiazol-2-yl)pyridin-2-yl)methyl)-N-(3,4-difluorophenyl)thiomorpholin-4-carboxamide 1-oxide], for which the values for the half-maximal inhibitory concentration (IC50) on human recombinant HDAC6 and at human recombinant HDAC1 were 54.6 nM and more than 10000 nM, respectively.
For `N=S1(=O)CCN(C(=O)N(Cc2ccc(-c3nnc(C(F)F)o3)cc2F)c2cccc(C(F)(F)F)c2)CC1` [Compound 31, N-(4-(5-(difluoromethyl)-1,3,4-oxadiazol-2-y1)-2-fluorobenzyl)-1-imino-N-(3-(trifluoromethyl)phenyl)thiomorpholin-4-carboxamide 1-oxide], in that order: 91.4 nM and more than 10000 nM.
`Cc1cccc(N(Cc2ccc(-c3nnc(C(F)F)o3)cc2F)C(=O)N2CCS(=N)(=O)CC2)c1` [Compound 32, N-(4-(5-(difluoromethyl)-1,3,4-oxadiazol-2-y1)-2-fluorobenzyl)-1-imino-N-(m-tolyl)thiomorpholin-4-carboxamide 1-oxide]: the half-maximal inhibitory concentration (IC50) on human recombinant HDAC6 was 80.6 nM; at human recombinant HDAC1, more than 10000 nM.
Take `N=S1(=O)CCN(C(=O)N(Cc2ccc(-c3nnc(C(F)F)o3)cc2F)c2cc(F)ccc2F)CC1` [Compound 33, N-(4-(5-(difluoromethyl)-1,3,4-oxadiazol-2-y1)-2-fluorobenzyl)-N-(2,5-difluorophenyl)-1-iminothiomorpholin-4-carboxamide 1-oxide]: the IC50 on human recombinant HDAC6 was 51.3 nM; on human recombinant HDAC1 it was more than 10000 nM.
The matching figures for `N=S1(=O)CCN(C(=O)N(Cc2ccc(-c3nnc(C(F)F)o3)cc2F)c2cccc(-n3cccc3)c2)CC1` [Compound 34, N-(3-(1H-pyrrol-1-yl)phenyl)-N-(4-(5-(difluoromethyl)-1,3,4-oxadiazol-2-y1)-2-fluorobenzyl)-1-iminothiomorpholin-4-carboxamide 1-oxide]: 91.5 nM and more than 10000 nM.
For `N=S1(=O)CCN(S(=O)(=O)N(Cc2ccc(-c3nnc(C(F)F)o3)cc2F)c2cccc(F)c2)CC1` [Compound 35, N-(4-(5-(difluoromethyl)-1,3,4-oxadiazol-2-yl)-2-fluorobenzyl)-N-(3-fluorophenyl)-1-iminothiomorpholin-4-sulfonamide 1-oxide], in that order: 59.7 nM and more than 10000 nM.
Take `N=S1(=O)CCN(S(=O)(=O)N(Cc2ccc(-c3nnc(C(F)F)o3)cn2)c2cccc(F)c2)CC1` [Compound 36, N-((5-(5-(difluoromethyl)-1,3,4-oxadiazol-2-yl)pyridin-2-yl)methyl)-N-(3-fluorophenyl)-1-iminothiomorpholin-4-sulfonamide 1-oxide]: the results for the IC50 on human recombinant HDAC6 and on human recombinant HDAC1 were 30.8 nM and more than 10000 nM, respectively.
